Key:
HIV RT polymerase = HIV RT polymerase (Human immunodeficiency virus type 1 group M subtype B, UniProt P04585); type: biochemical, HIV-1; conditions: RNase H with HTS-1 as substrate
HIV integrase = HIV integrase (Human immunodeficiency virus type 1 group M subtype B, UniProt P04585); test: HIV IN strand transfer; type: biochemical, HIV-1; conditions: INST IC50, tested 0.13-100 µM

Row | Structure (SMILES) | SI (IC50 RT pol / IC50 RNase H) (HIV RT polymerase) | IC50 (HIV integrase) [µM]
1 | Cc1ccc(-c2ccc(Nc3cc(=O)n(O)c(=O)[nH]3)cc2)cc1 [11b, 3-Hydroxy-6-((4'-methyl-[1,1'-biphenyl]-4-yl)amino)pyrimidine-2,4(1H,3H)-dione] | 5.7 (14) | –
2 | COc1ccc(-c2cccc(Nc3cc(=O)n(O)c(=O)[nH]3)c2)cc1 [11j, 3-Hydroxy-6-((4'-methoxy-[1,1'-biphenyl]-3-yl)amino)pyrimidine-2,4(1H,3H)-dione] | 6.3 (32) | > 100
3 | COc1ccc(-c2cccc(Nc3cc(=O)n(O)c(=O)[nH]3)c2)c(OC)c1 [11l, 6-((2',4'-Dimethoxy-[1,1'-biphenyl]-3-yl)amino)-3-hydroxypyrimidine-2,4(1H,3H)-dione] | – | 1.2 to 1.3
4 | COc1cccc(OC)c1-c1cccc(Nc2cc(=O)n(O)c(=O)[nH]2)c1 [11m, 6-((2',6'-Dimethoxy-[1,1'-biphenyl]-3-yl)amino)-3-hydroxypyrimidine-2,4(1H,3H)-dione] | – | 1.2 to 1.3
5 | O=c1cc(Nc2cccc(-c3ccc(F)cc3)c2)[nH]c(=O)n1O [11o, 6-((4'-Fluoro-[1,1'-biphenyl]-3-yl)amino)-3-hydroxypyrimidine-2,4(1H,3H)-dione] | 6.6 (33) | > 100

From article PMC4871627 (Journal of medicinal chemistry, 2016)
